# Laboratory results from ChEMBL document CHEMBL1157539, “Thousands of chemical starting points for antimalarial lead identification” (Nature, 2010).
# System: Plasmodium falciparum
# Experiment: GSK_TCMDC: Inhibition of Plasmodium falciparum 3D7 in whole erythrocytes, using parasite LDH activity as an index of growth.
# Assay type: functional, organism-based
# Details: not given
row,Structure (SMILES),XC50 [nM]
1,O=C(Nc1ccc(Cn2ncc(N3CCCNCC3)c(Cl)c2=O)cc1)Nc1ccc(-c2ccccc2)cc1,815

# Same assay, conditions: Plasmodium falciparum, 3D7
row,Structure (SMILES),XC50 [nM]
1,CC(=O)N1N=C(c2ccc(Cl)cc2)Sc2c1nc(-c1ccccc1)n2C(C)=O,493
2,O=C(Cc1ccc(Cl)cc1)NC1CCN(c2ccnc3cc(Cl)ccc23)C1 (stereo unspecified),226
3,Oc1ccccc1CN(CCCN(Cc1ccccn1)Cc1ccccc1O)Cc1ccccn1,1060
4,O=C(Nc1cccc(C(F)(F)F)c1)Nc1nc2ccc([N+](=O)[O-])cc2s1,687
5,CCCCNC(=N)c1ccc(OCCCCCOc2ccc(C(=N)NCCCC)cc2)cc1,114
6,Cn1cnc2c(Nc3ccncc3)nc(-c3ccc(OC(F)(F)F)cc3)nc21,1100
7,Cc1nnc(-c2cccc(Nc3ccnc4cc(-c5nccs5)ccc34)c2)o1,632
8,Cc1ccccc1C1CCN(C2CCC(NC(=O)/C=C/c3ccc(F)cc3)CC2)CC1 (stereo unspecified),1340
9,COc1ccc2[nH]c(C)cc(=NN=Cc3ccccc3F)c2c1,365
10,Cc1sc(CNCCCNc2cc(=O)c3ccccc3[nH]2)c(I)c1C,849
11,CC[C@H]1CN(Cc2ccco2)CC[C@H]1CCCc1ccnc2ccc(O)cc12,1270
12,COc1ccc2nc(SC(C)C(=O)c3c[nH]c4ccccc34)[nH]c2c1 (stereo unspecified),1280
13,O=C1C(=Cc2cc(Cc3ccccc3)ccc2O)SC(=S)N1Cc1ccccc1,943
14,CCc1c(C)nc(-n2nc(C)cc2NC(=O)C(CC)c2ccccc2)[nH]c1=O (stereo unspecified),714
15,Clc1ncnc2scc(-c3ccc(Br)cc3)c12,886
16,CC(=O)Nc1cc(C(=O)Nc2cccc(-c3cccc(-c4nc5cc(C(F)(F)F)ccc5[nH]4)c3)c2)ccc1C,215
17,O=C(NCc1cccc(Br)c1)c1ccc(CNC2CCN(Cc3ccccc3)CC2)cc1,875
18,CN/C(=C\[N+](=O)[O-])NCCSCc1cc(C)c(CN(C)C)s1,348
19,O=C(Nc1ccc(Cn2ncc(N3CCCNCC3)c(Cl)c2=O)cc1)Nc1cccc(Oc2ccccc2)c1,987
20,CC(C)CCNC(=O)C1Cc2c([nH]c3ccc(Br)cc23)C2(CCN(Cc3ccccc3)CC2)N1 (stereo unspecified),817
21,O=C(NC1CCN(CCc2c[nH]c3ccc(F)cc23)CC1)c1ncc(-c2ccccc2)[nH]1,868
22,COc1ccc2nccc([C@@H](O)CN3CCC(NCc4cc5oc(=O)[nH]c5cc4F)CC3)c2c1,774
23,CC1CCCC(NC(=O)CCOc2ccccc2)C1 (stereo unspecified),882
24,Cc1cc(NC(=O)NCCN2CCC(NS(=O)(=O)c3ccccc3F)CC2)c2ccccc2n1,949

row,Structure (SMILES),XC50 [nM]
1,O=C(NCCc1ccc(F)cc1)c1ccc(N2CCN(c3ccncc3)CC2)nc1,1420
2,Cc1nc(C)c(-c2cccc(Oc3ccc(Cl)cc3)c2)c(O)c1Br,73.6
3,COCCNCc1ncsc1-c1ccc2c(Nc3cc(O)ccc3C)ccnc2c1,705
4,N=C(N)c1cc(Cl)cc(NC(=O)Nc2cc(Cl)cc(C(=N)N)c2)c1,719
5,Cc1cccc2nc(-c3cccc(-c4ccc(CN5CCC(C(N)=O)CC5)cc4)c3)[nH]c12,853
6,COc1ccc(NC(=O)Nc2ccc(-c3cccc(-c4nc5ccccc5[nH]4)c3)cc2)cc1,764
7,NC(=O)c1cccc(Nc2nccc(Nc3ccc(Oc4cccc(Cl)c4)c(Cl)c3)n2)c1,1280
8,COc1ccc(CCNCCCCCCNCCc2ccc(Cl)c3ccccc23)cc1OC,580
9,COc1ccc2nccc([C@@H](O)CN3CCC(NCc4cc5ccccc5s4)CC3)c2c1,347
10,CC(C)Sc1nc2c(c(=O)n1Cc1ccco1)C1(CCCC1)Cc1ccccc1-2,1630
11,CC(C)CC(=O)NC1CCN(Cc2c(-c3cccs3)nc3ccccc3c2C(=O)N[C@@H](C)C2CCCCC2)CC1,819
12,CC[C@H]1CN2CC[C@@H]1C[C@H]2[C@H](O)c1cc(-c2cc(Cl)cc(Cl)c2)nc2ccc(OC)cc12,235
13,CCCc1cc(=O)oc2cc(OC)c(C(=O)CC(C)C)c(OC)c12,1010
14,CCNc1cc(C(=O)N[C@@H](Cc2ccccc2)[C@H](O)CNCCc2cc(OC)cc(OC)c2)cc(N2CCCCS2(=O)=O)c1,1140
15,C=CCOc1ccc(C(=O)Nc2nonc2-c2ccc(OC)c(OC)c2)cc1,642
16,COc1ccc(-c2nc(NC(=O)COc3ccc(C(C)=O)cc3)sc2C)cc1,713
17,COc1ccc2c(c1)CC(CNC[C@H](O)c1cccc(Cl)c1)CC2 (stereo partly specified),988
18,O=C(Nc1ccc(F)cc1)c1nc2ccccc2nc1Cl,1230
19,COc1ccc2nc3cc(Cl)ccc3c(NCCCCCCNc3c4ccc(Cl)cc4nc4ccc(OC)cc34)c2c1,661
20,Cc1cc(N(C)C)nc(Nc2ccc(NC(=O)c3cccc(F)c3)cc2)n1,998
21,O=C(NCc1cccc(F)c1)Nc1cccc(-c2cccc(-c3nc4cc(C(F)(F)F)ccc4[nH]3)c2)c1,330
22,O=C(Nc1ccc(OC2CCN(Cc3ccc(F)cc3)C2)cc1)c1cccs1 (stereo unspecified),642
23,CCCc1cc(Cc2cnc(N)nc2N)cc(OC)c1OC,988
24,Cc1ccc2c(c1)NCC21CCN(C[C@@H](O)C2CCN(c3ccnc(Cl)c3)CC2)CC1C (stereo partly specified),940

row,Structure (SMILES),XC50 [nM]
1,FC(F)(F)c1ccc(CNCC2CCN(Cc3ccc4c(c3)OCO4)CC2)cc1,1360
2,COc1cc2nc(NCCn3nc(C)cc3C)nc(NCCc3ccccc3)c2cc1OC,436
3,CN1CC=C(c2c[nH]c3ccc(OCc4ccccc4)cc23)CC1,718
4,O=C(Nc1ccc2c(c1)CCC2)c1cnc(N2CCN(c3ccncc3)CC2)c(Cl)c1,1110
5,COC(=O)C(=O)c1c(-c2ccccc2)c(-c2ccc(OC)c(OC)c2)c2c3cc(OC)c(OC)cc3ccn12,636
6,COc1ccc(NC(=O)NC2CCN(CCCCCNC(=O)/C=C/c3ccc(Cl)c(Cl)c3)C2)c(OC)c1 (stereo unspecified),823
7,N#Cc1cccc(/C=C/C(=O)NC2CCC(CCN3CCc4ccc(-c5cnccn5)cc4CC3)CC2)c1 (stereo unspecified),773
8,N=C(N)c1ccc(-c2cc3ccc(C(=N)N)cc3[nH]2)cc1,59.9
9,CS(=O)(=O)NCCCNCc1cccc(-c2csc(-c3nc4ccccc4[nH]3)c2)c1,1010
10,CN(C)c1ccc(CN2CCC(NC(=O)c3ccc(-c4cccc(C(F)(F)F)c4)s3)CC2)cc1,1150
11,CN(CCO)Cc1cccc(-c2ccc(NC(=O)c3cccc(C#N)c3)cc2)c1,796
12,CCCCNCc1ccc(OCc2cccc(COc3ccc(CNCCCC)cc3)c2)cc1,318
13,Oc1ccc(CCNCCCCCCNCCc2ccc(Cl)cc2)c(Cl)c1O,775
14,N#Cc1ccc(N[C@@H](CC2CCCCC2)C(=O)N[C@@H]2CCCc3ccccc32)c2ccccc12,728
15,N#Cc1ccc(-c2ccc(C(=O)NCCCCN3CCC(c4ccc5c(c4OCC(N)=O)CCCC5)CC3)cc2)cc1,984
16,CC[C@H](C)CNC(=O)c1cccc(-c2cccc(CN3CCC(N4CCCC4)CC3)c2)n1,706
17,CC(C)Nc1ccc(Nc2ccnc3cc4ccccc4cc23)cc1,142
18,CCCCOC(=O)c1ccc(NC(=O)Nc2ccc(Cn3ncc(N4CCCNCC4)c(Cl)c3=O)cc2)cc1,739
19,O=C(NCCCCN1CCC(c2cccc3ccccc23)CC1)c1ccc(NC(=O)c2ccc(Cl)cc2)cc1,784
20,COc1ccc2nccc([C@@H](O)CN3CCC(NCc4cnc5c(c4)NC(=O)CS5)C(F)C3)c2c1 (stereo partly specified),769
21,Cc1cc(C(=O)Nc2nc(-c3ccccn3)nc3ccsc23)no1,807
22,NCC1CCCN1Cc1ccc(-c2ccc(-c3nc4cc(C(F)(F)F)ccc4[nH]3)s2)cc1 (stereo unspecified),794
23,COc1ccc(CC(=O)NC(CCN2CCC3(CC2)CN(S(C)(=O)=O)c2ccccc23)c2ccc(Cl)c(Cl)c2)cc1OC (stereo unspecified),998
24,CCCC/C=C(\Cl)c1ccc(O)c2c1C[C@H]1C[C@H]3[C@H](N(C)C)C(O)=C(C(N)=O)C(=O)[C@@]3(O)C(O)=C1C2=O,1090

row,Structure (SMILES),XC50 [nM]
1,COc1ccc(Br)cc1C1C2C(=O)N(c3ccc(Br)cc3)C(=O)C2C2(C(=O)O)CC(OCc3ccccc3)CN12 (stereo unspecified),195
2,O=C(Nc1ccc(C(F)(F)F)cc1)c1cccc(S(=O)(=O)NC2CCN(Cc3ccccc3)C2)c1 (stereo unspecified),1050
3,Cc1cc(Nc2ccc(O)cc2)nc2cc(O)ccc12,756
4,CC1(C)NC(N)=NC(=N)N1OCc1cc(Cl)c(Cl)cc1CON1C(=N)N=C(N)NC1(C)C,14.6
5,O=C(Nc1ccc(N2CCCCC2)c(Cl)c1)c1nc[nH]n1,449
6,O=C(NCCc1ccccc1)c1cc(-c2cccnc2)cnc1NCC1CC1,847
7,CN1CCN(c2cccc(-c3nnc(-c4ccc(OCC(=O)NCc5cccc(C(F)(F)F)c5)c([N+](=O)[O-])c4)o3)c2)CC1,962
8,CCC1=C[C@@H]2CN(C1)Cc1c([nH]c3ccccc13)[C@@](C(=O)OC)(c1cc3c(cc1OC)N(C)[C@H]1[C@@](O)(C(=O)OC)[C@H](O)[C@]4(CC)C=CCN5CC[C@]31[C@@H]54)C2,866
9,CN1CCC(N2CCN(Cc3cccc(-c4ccc(-c5nc6cc(C(F)(F)F)ccc6[nH]5)cc4)c3)CC2)CC1,140
10,CC(=O)Nc1ccc(C(=O)Nc2cccc(-c3cccc(-c4nc5cccc(C)c5[nH]4)c3)c2)cn1,64.7
11,O=C(Nc1cccc(-c2csc(-c3nc4ccccc4[nH]3)c2)c1)c1cccnc1,230
12,CC(C)[C@H](NC(=O)c1c(CN2CCC(N3CCCCC3)CC2)c(-c2ccccc2)nc2cc(O)ccc12)c1ccccc1,741
13,CN(C)CCN(C)Cc1ccc(-c2ccc(NC(=O)c3cccc(C#N)c3)cc2)cc1,1270
14,Nc1nc(N)c2c(ccc3c2ccn3CCCC(F)(F)F)n1,98
15,C=CCOC(=O)N1CCC(CNCc2cccc(-c3ccc(-c4nc5cccc(C)c5[nH]4)s3)c2)C1 (stereo unspecified),248
16,CC(=O)N1N=C(c2ccc(F)cc2)Sc2c1nc(-c1ccccc1)n2C(C)=O,651
17,Cc1noc(C)c1-c1ccc2c(Nc3ccccc3C(C)(C)C)c(C(=O)NCc3cccc4ccccc34)cnc2c1,941
18,N#Cc1cccc(C(=O)Nc2cccc(-c3ccc(C(=O)Nc4cccnc4)cc3)c2)c1,693
19,CCOc1cc(C=NNc2nc(C)cc(-n3nc(C)cc3C)n2)ccc1O,1080
20,OCC1CCN(Cc2ccc(-c3ccc(-c4nc5ccccc5[nH]4)cc3)cc2)CC1,898
21,CCc1ccc(S(=O)(=O)Nc2ccc(CCN3CCC(N4CCCCC4)CC3)cc2)cc1,988
22,COc1cccc(C(=O)C2CC2CN2CC=C(c3c[nH]c4ccc(OC)nc34)CC2)c1 (stereo unspecified),526
23,COc1cc(C(=O)N2CCN(C(C)C)CC2)ccc1CN(C)CCCN1CCN(c2cccc(Cl)c2Cl)CC1,776
